# Results as given in patent publication US8288371B2, “Ortho pyrrolidine, benzyl-substituted heterocycle CCR1 antagonists for autoimmune diseases and inflammation” (Pharmacopeia, LLC, priority 2007, dated 2012).
# Target: T1, human CCR1 (Homo sapiens, UniProt P32246)
# T1 sequence (P32246 1-355): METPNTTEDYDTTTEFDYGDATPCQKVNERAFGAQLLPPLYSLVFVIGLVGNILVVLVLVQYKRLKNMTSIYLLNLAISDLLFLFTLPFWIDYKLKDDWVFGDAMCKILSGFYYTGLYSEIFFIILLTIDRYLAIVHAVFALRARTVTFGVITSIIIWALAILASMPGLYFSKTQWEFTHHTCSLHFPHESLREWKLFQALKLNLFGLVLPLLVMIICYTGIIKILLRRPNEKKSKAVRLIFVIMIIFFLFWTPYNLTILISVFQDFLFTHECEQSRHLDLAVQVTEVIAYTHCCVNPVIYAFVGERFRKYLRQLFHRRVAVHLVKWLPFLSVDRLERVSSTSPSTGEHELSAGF
# Test: CCR1 binding protocol (SPA, [125I]-MIP-1α displacement)
# Conditions: cell membrane expressing human CCR1, 0.1 nM [125I]-MIP-1α, 4 hours at ambient temperature; read-out: Relative potency (IC50)
# How it was run: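 Displacement of 0.1 nM [125I]-MIP-1α (final) from membranes expressing human CCR1 was measured by scintillation proximity after 4 h at ambient temperature. Conditions: pH 7.4 Tris buffer with 0.1% BSA and MnCl, and 0.5 μg membrane per well. Compounds were tested as a 10-step ½-log series from a 10 mM DMSO stock to derive IC50.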
row,SMILES,IC50 [µM]
1,Cc1nnc([C@H]2CCCN2C(=O)Nc2cc(C(F)(F)F)ccc2S(C)(=O)=O)n1Cc1ccc(Cl)cc1 [Compound 423],0.05 to 0.5
2,Cc1nnc([C@H]2CCCN2C(=O)Nc2ccc(Cl)c(Cl)c2)n1Cc1ccc(Cl)cc1 [Compound 424],0.05 to 0.5
3,Cc1nnc([C@H]2CCCN2C(=O)Nc2ccc3c(c2)S(=O)(=O)C=C3)n1Cc1ccc(Cl)cc1 [Compound 430],0.05 to 0.5
4,Cc1nnc([C@H]2C[C@@H](O)CN2C(=O)NCc2ccc(C(F)(F)F)cc2)n1Cc1ccc(Cl)cc1 [Compound 439],0.05 to 0.5
5,Cc1nnc([C@H]2CCCN2C(=O)Nc2ccc(Cl)c(C(F)(F)F)c2)n1Cc1ccc(Cl)cc1 [Compound 441],0.05 to 0.5
6,Cc1nnc([C@H]2CCCN2C(=O)Nc2ccc(Cl)c(S(C)(=O)=O)c2)n1Cc1ccc(Cl)cc1 [Compound 443],0.05 to 0.5
7,Cc1nnc([C@H]2C[C@@H](O)CN2C(=O)NC2CCOc3cc(C#N)ccc32)n1Cc1ccc(Cl)cc1 (some centres unmarked) [Compound 444],0.05 to 0.5
8,Cc1noc(C)c1NC(=O)N1C[C@@H](O)C[C@@H]1c1nnc(C)n1Cc1ccc(Cl)cc1 [Compound 445],0.05 to 0.5
9,Cc1nnc([C@H]2C[C@@H](O)CN2C(=O)Nc2ccc(Cl)c(C(F)(F)F)c2)n1Cc1ccc(Cl)cc1 [Compound 446],0.05 to 0.5
10,Cc1noc(C)c1NC(=O)N1C[C@H](O)C[C@@H]1c1nnc(C)n1Cc1ccc(Cl)cc1 [Compound 447],0.05 to 0.5
11,O=C(Nc1ccc(Cl)c(C(F)(F)F)c1)N1CCC[C@@H]1c1ncnn1Cc1ccc(Cl)cc1 [Compound 448],0.05 to 0.5
12,Cc1nnc([C@H]2C[C@@H](O)CN2C(=O)Nc2ccc(F)c(C(F)(F)F)c2)n1Cc1ccc(Cl)cc1 [Compound 449],0.5 to 5
13,CC(=O)N1CCC(NC(=O)N2CCC[C@@H]2c2nnc(C)n2Cc2ccc(Cl)cc2)CC1 [Compound 450],0.5 to 5
14,Cc1nnc([C@H]2CCCN2C(=O)Nc2cnc(C(F)(F)F)nc2)n1Cc1ccc(Cl)cc1 [Compound 453],0.05 to 0.5
15,Cc1nnc([C@H]2CCCN2C(=O)Nc2ccc(C#N)cc2F)n1Cc1ccc(Cl)cc1 [Compound 454],0.05 to 0.5
16,Cc1cc(C)c(S(=O)(=O)O)cc1NC(=O)N1CCC[C@@H]1c1nnc(C)n1Cc1ccc(Cl)cc1 [Compound 455],0.05 to 0.5
17,Cc1nnc([C@H]2CCCN2C(=O)Nc2ccc(S(=O)(=O)O)cc2Cl)n1Cc1ccc(Cl)cc1 [Compound 456],0.05 to 0.5
18,Cc1c(Cl)nc([C@H]2CCCN2C(=O)Nc2ccc(Cl)cc2F)n1Cc1ccc(Cl)cc1 [Compound 457],0.05 to 0.5
19,Cc1nnc([C@H]2CCCN2C(=O)Cc2cccc(C(F)(F)F)c2)n1Cc1ccc(Cl)cc1 [Compound 461],0.05 to 0.5
20,COCc1nnc([C@H]2CCCN2C(=O)NCc2ccc(Cl)cc2Cl)n1Cc1ccc(Cl)cc1 [Compound 462],0.05 to 0.5
21,COCc1nnc([C@H]2CCCN2C(=O)N[C@@H](C)c2ccc(Cl)cc2)n1Cc1ccc(Cl)cc1 [Compound 463],0.05 to 0.5
22,Cc1nnc([C@H]2CCCN2C(=O)Nc2nnc(C(F)(F)F)s2)n1Cc1ccc(Cl)cc1 [Compound 464],0.5 to 5
23,COCc1nnc([C@H]2CCCN2C(=O)Nc2ccc(Cl)cc2F)n1Cc1ccc(Cl)cc1 [Compound 465],0.5 to 5

# Continued, values first:
row,IC50 [µM],SMILES
1,0.05 to 0.5,NCc1nnc([C@H]2CCCN2C(=O)N[C@H]2CCOc3cc(C(F)(F)F)ccc32)n1Cc1ccc(Cl)cc1 [Compound 414]
2,< 0.05,Cc1ncc(NC(=O)N2CCC[C@@H]2c2nnc(C)n2Cc2ccc(Cl)cc2)c(C)n1 [Compound 415]
3,< 0.05,Cc1nnc([C@H]2CCCN2C(=O)Nc2cccc(Cl)c2F)n1Cc1ccc(Cl)cc1 [Compound 416]
4,< 0.05,Cc1nnc([C@H]2CCCN2C(=O)Nc2ccc(Cl)cc2C#N)n1Cc1ccc(Cl)cc1 [Compound 417]
5,< 0.05,Cc1nnc([C@H]2CCCN2C(=O)Nc2ccc(Br)cc2F)n1Cc1ccc(Cl)cc1 [Compound 418]
6,0.05 to 0.5,Cc1nnc([C@H]2CCCN2C(=O)Nc2cc(Cl)ccc2F)n1Cc1ccc(Cl)cc1 [Compound 419]
7,0.05 to 0.5,Cc1nnc([C@H]2CCCN2/C(=N/C#N)NCc2ccc(Cl)cc2Cl)n1Cc1ccc(Cl)cc1 [Compound 420]
8,0.05 to 0.5,Cc1nnc([C@H]2CCCN2C(=O)Nc2ccc(Cl)cc2Cl)n1Cc1ccc(Cl)cc1 [Compound 421]
9,0.05 to 0.5,Cc1nnc([C@H]2CCCN2C(=O)Nc2ccc(F)cc2F)n1Cc1ccc(Cl)cc1 [Compound 422]
10,< 0.05,Cc1nnc([C@H]2CCCN2C(=O)Nc2ccc(F)cc2Cl)n1Cc1ccc(Cl)cc1 [Compound 425]
11,< 0.05,Cc1cc(NC(=O)N2CCC[C@@H]2c2nnc(C)n2Cc2ccc(Cl)cc2)c(F)cc1Cl [Compound 426]
12,< 0.05,Cc1nnc([C@H]2CCCN2C(=O)Nc2cc(F)c(Cl)cc2F)n1Cc1ccc(Cl)cc1 [Compound 427]
13,< 0.05,COc1cc(Cl)ccc1NC(=O)N1CCC[C@@H]1c1nnc(C)n1Cc1ccc(Cl)cc1 [Compound 428]
14,< 0.05,Cc1nnc([C@H]2CCCN2C(=O)Nc2c(F)cc(Cl)cc2F)n1Cc1ccc(Cl)cc1 [Compound 429]
15,< 0.05,Cc1nc(C(F)(F)F)ncc1NC(=O)N1CCC[C@@H]1c1nnc(C)n1Cc1ccc(Cl)cc1 [Compound 431]
16,< 0.05,Cc1nnc([C@H]2C[C@H](O)CN2C(=O)N[C@H]2CCOc3cc(C(F)(F)F)ccc32)n1Cc1ccc(Cl)cc1 [Compound 432]
17,< 0.05,Cc1onc(-c2ccccc2)c1NC(=O)N1C[C@@H](O)C[C@@H]1c1nnc(C)n1Cc1ccc(Cl)cc1 [Compound 433]
18,< 0.05,Cc1nnc([C@H]2CCCN2C(=O)Nc2ccc(Cl)cc2S(C)(=O)=O)n1Cc1ccc(Cl)cc1 [Compound 434]
19,< 0.05,Cc1nnc([C@H]2C[C@H](O)CN2C(=O)Nc2ccc(Cl)cc2F)n1Cc1ccc(Cl)cc1 [Compound 435]
20,< 0.05,Cc1nnc([C@H]2C[C@H](O)CN2C(=O)NC2(c3ccc(C(F)(F)F)cc3)CC2)n1Cc1ccc(Cl)cc1 [Compound 436]
21,< 0.05,Cc1nnc([C@H]2C[C@H](O)CN2C(=O)Nc2ccc(Cl)c(C(F)(F)F)c2)n1Cc1ccc(Cl)cc1 [Compound 437]
22,< 0.05,Cc1nnc([C@H]2C[C@@H](O)CN2C(=O)N[C@@H](C)c2ccc(Cl)cc2)n1Cc1ccc(Cl)cc1 [Compound 438]
23,< 0.05,Cc1nnc([C@H]2C[C@H](O)CN2C(=O)NC2CCOc3cc(C#N)ccc32)n1Cc1ccc(Cl)cc1 (some centres unmarked) [Compound 440]
24,< 0.05,Cc1nnc([C@H]2C[C@@H](O)CN2C(=O)NCc2ccc(Cl)cc2Cl)n1Cc1ccc(Cl)cc1 [Compound 442]
25,< 0.05,Cc1nnc([C@H]2CCCN2C(=O)Nc2ccc(S(=O)(=O)N(C)C)cc2Cl)n1Cc1ccc(Cl)cc1 [Compound 451]
26,< 0.05,CNS(=O)(=O)c1ccc(NC(=O)N2CCC[C@@H]2c2nnc(C)n2Cc2ccc(Cl)cc2)c(Cl)c1 [Compound 452]
27,< 0.05,CC[C@@H](NC(=O)N1CCC[C@@H]1c1nnc(C)n1Cc1ccc(Cl)cc1)c1ccc(C(F)(F)F)nc1 [Compound 458]
28,< 0.05,COCc1nnc([C@H]2CCCN2C(=O)N[C@H]2CCOc3cc(C(F)(F)F)ccc32)n1Cc1ccc(Cl)cc1 [Compound 459]
29,< 0.05,Cc1nnc([C@H]2CCCN2C(=O)N[C@H](C)c2ccc(C(F)(F)F)nc2)n1Cc1ccc(Cl)cc1 [Compound 460]
30,< 0.05,Cc1nc(C(F)(F)F)nc(C)c1NC(=O)N1CCC[C@@H]1c1nnc(C)n1Cc1ccc(Cl)cc1 [Compound 466]
